How the values were obtained:
[1] = tested on: Wnt activity (Sp5-Luc reporter, Wnt-responsive promoter) in SW480 colon carcinoma cells; test: Wnt activity screening assay: Sp5-Luc reporter gene assay in SW480 cells; type: cell-based; settings: Homo sapiens; for inhibition at 10 µM: read-out: percent inhibition at 10 μM (given for EC50 of >10 μM); for EC50: overnight incubation, 10-point curve starting from 10 μM
Source text: The screening assay for Wnt activity is described as follows. Reporter cell lines can be generated by stably transducing cancer cell lines (e.g., colon cancer) or primary cells (e.g., IEC-6 intestinal cells) with a lentiviral construct that includes a Wnt-responsive promoter driving expression of the firefly luciferase gene.
SW480 colon carcinoma cells were transduced with a lentiviral vector expressing luciferase with a human Sp5 promoter consisting of a sequence of eight TCF/LEF binding sites. SW480 cells stably expressing the Sp5-Luc reporter gene and a hygromycin resistance gene were selected by treatment with 150 μg/mL of hygromycin for 7 days. These stably transduced SW480 cells were expanded in cell culture and used for all further screening activities. Each compound was dissolved in DMSO as a 10 mM stock and used to prepare compound source plates. Serial dilution (1:3, 10-point dose-response curves starting from 10 μM) and compound transfer was performed using the ECHO 550 (Labcyte, Sunnyvale, Calif.) into 384-well white solid bottom assay plates (Greiner Bio-One) with appropriate DMSO backfill for a final DMSO concentration of 0.1%. For Sp5-Luc reporter gene assays, the cells were plated at 4,000 cells/well in 384-well plates with medium containing 1% fetal bovine serum and incubated overnight at 37° C. and 5% CO2. Following incubation, 20 μl of BrightGlo luminescence reagent (Promega) was added to each well of the 384-well assay plates. The plates were placed on an orbital shaker for 2 min and then luminescence was quantified using the Envision (Perkin Elmer) plate reader. Readings were normalized to DMSO only treated cells, and normalized activities were utilized for EC50 calculations using the dose-response log (inhibitor) vs. response-variable slope (four parameters) nonlinear regression feature available in GraphPad Prism 5.0 (or Dotmatics). For EC50 of >10 μM, the percent inhibition at 10 μM is provided.

[2] = tested on: primary human fibroblasts derived from IPF patients (LL29 cells) treated with TGF-β1; test: Inhibition of the fibrotic process: αSMA staining in TGF-β1-treated LL29 fibroblasts; type: cell-based; settings: Fibroblast; for inhibition at 10 µM: LL29 fibroblasts treated with TGF-β1, Table 4, read-out: percent inhibition at 10 μM (given in parentheses for EC50 >10 μM); for EC50: 96 h, LL29 fibroblasts treated with TGF-β1 (20 ng/mL), 4 days, Table 4
Source text: Representative compounds were screened using primary human fibroblasts (derived from IPF patients) treated with TGF-β1 to determine their ability to inhibit the fibrotic process.
Human Fibroblast Cell Culture: Primary human fibroblasts derived from IPF patients (LL29 cells) [^1Xiaoqiu Liu, et. al., “Fibrotic Lung Fibroblasts Show Blunted Inhibition by cAMP Due to Deficient cAMP Response Element-Binding Protein Phosphorylation”, Journal of Pharmacology and Experimental Therapeutics (2005), 315(2), 678-687; ^2Watts, K. L., et. al., “RhoA signaling modulates cyclin D1 expression in human lung fibroblasts; implications for idiopathic pulmonary fibrosis”, Respiratory Research (2006), 7(1), 88] were obtained from American Type Culture Collection (ATCC) and expanded in F12 medium supplemented with 15% Fetal Bovine Serum and Penicillin/Streptomycin.
Compound Screening: Each compound was dissolved in DMSO as a 10 mM stock and used to prepare compound source plates. Serial dilution (1:2, 11-point dose-response curves from 10 μM to […]) and compound transfer was performed using the ECHO 550 (Labcyte, Sunnyvale, Calif.) into 384-well clear bottom assay plates (Greiner Bio-One) with appropriate DMSO backfill for a final DMSO concentration of 0.1%. LL29 cells are plated at 1,500 cells/well in 80 μL/well F12 medium supplemented with 1% Fetal Bovine Serum. One hour after addition of the cells, TGF-β1 (Peprotech; 20 ng/mL) was added to the plates to induce fibrosis (ref. 1 and 2 above). Wells treated with TGF-β1 and containing DMSO were used as controls. Cells were incubated at 37° C. and 5% CO2 for 4 days. Following incubation for 4 days, SYTOX green nucleic acid stain (Life Technologies [Thermo Fisher Scientific]) was added to the wells at a final concentration of 1 μM and incubated at room temperature for 30 min. Cells were then fixed using 4% formaldehyde (Electron Microscopy Sciences), washed 3 times with PBS followed by blocking and permeabilization using 3% Bovine Serum Albumin (BSA; Sigma) and 0.3% Triton X-100 (Sigma) in PBS. Cells were then stained with antibody specific to α-smooth muscle actin (αSMA; Abcam) (ref. 1 and 2 above) in 3% Bovine Serum Albumin (BSA; Sigma) and 0.3% Triton X-100 (Sigma) in PBS, and incubated overnight at 4° C. Cells were then washed 3 times with PBS, followed by incubation with Alexa Flor-647 conjugated secondary antibody (Life Technologies [Thermo Fisher Scientific]) and DAPI at room temperature for 1 hour. Cells were then washed 3 times with PBS and plates were sealed for imaging. αSMA staining was imaged by excitation at 630 nm and emission at 665 nm and quantified using the Compartmental Analysis program on the CellInsight CX5 (Thermo Scientific). Dead or apoptotic cells were excluded from analysis based on positive SYTOX green staining. % of total cells positive for αSMA were counted in each well and normalized to the average of 11 wells treated with TGF-β1 on the same plate using Dotmatics' Studies Software. The normalized averages (fold change over untreated) of 3 replicate wells for each compound concentration were used to create dose-responses curves and EC50 values were calculated using non-linear regression curve fit in the Dotmatics' Studies Software. For EC50 of >10 μM, the percent inhibition at 10 μM is provided.

SMILES	EC50 [1] [µM]	inhibition at 10 µM [1] [%]	inhibition at 10 µM [2] [%]	EC50 [2] [µM]
CC(C)C(=O)Nc1cncc(-c2ccc3[nH]nc(-c4nc5c(N6CCN(C)CC6)cccc5[nH]4)c3n2)c1 [Compound 233, N-(5-(3-(4-(4-Methylpiperazin-1-yl)-1H-benzo[d]imidazol-2-yl)-1H-pyrazolo[4,3-b]pyridin-5-yl)pyridin-3-yl)isobutyramide]	> 10	7.3	24.7	> 10
CN1CCN(c2cccc3[nH]c(-c4n[nH]c5ccc(-c6cncnc6)nc45)nc23)CC1 [Compound 251, 3-(4-(4-Methylpiperazin-1-yl)-1H-benzo[d]imidazol-2-yl)-5-(pyrimidin-5-yl)-1H-pyrazolo[4,3-b]pyridine]	> 10	4.7	–	2.43
O=C(Cc1ccccc1)Nc1cncc(-c2ccc3[nH]nc(-c4nc5ccccc5[nH]4)c3n2)c1 [Compound 262, N-(5-(3-(1H-Benzo[d]imidazol-2-yl)-1H-pyrazolo[4,3-b]pyridin-5-yl)pyridin-3-yl)-2-phenylacetamide]	> 10	11.2	0	> 10
O=C(Nc1cncc(-c2ccc3[nH]nc(-c4nc5c(-c6ccsc6)cccc5[nH]4)c3n2)c1)c1ccccc1 [Compound 291, N-(5-(3-(4-(Thiophen-3-yl)-1H-benzo[d]imidazol-2-yl)-1H-pyrazolo[4,3-b]pyridin-5-yl)pyridin-3-yl)benzamide]	> 10	42.5	–	2.62
Cc1ccc(-c2cccc3[nH]c(-c4n[nH]c5ccc(-c6cncc(NC(=O)C7CCCC7)c6)nc45)nc23)s1 [Compound 414, N-(5-(3-(4-(5-Methylthiophen-2-yl)-1H-benzo[d]imidazol-2-yl)-1H-pyrazolo [4,3-b]pyridin-5-yl)pyridin-3-yl)cyclopentanecarboxamide]	> 10	7.2	42.2	> 10
CS(=O)(=O)NCc1cc(F)cc(-c2cccc3[nH]c(-c4n[nH]c5ccc(-c6cncc(NC(=O)c7ccccc7)c6)nc45)nc23)c1 [Compound 487, N-(5-(3-(4-(3-Fluoro-5-(methylsulfonamidomethyl)phenyl)-1H-benzo[d]imidazol-2-yl)-1H-pyrazolo[4,3-b]pyridin-5-yl)pyridin-3-yl)benzamide]	> 10	0	0	> 10
Fc1cccc(-c2cccc3[nH]c(-c4n[nH]c5ccc(C6=CCNCC6)nc45)nc23)c1 [Compound 506, 3-(4-(3-Fluorophenyl)-1H-benzo[d]imidazol-2-yl)-5-(1,2,3,6-tetrahydropyridin-4-yl)-1H-pyrazolo[4,3-b]pyridine]	> 10	10	–	1.6
Fc1cccc(-c2cccc3[nH]c(-c4n[nH]c5ccc(-c6cn[nH]c6)nc45)nc23)c1 [Compound 507, 3-(4-(3-Fluorophenyl)-1H-benzo[d]imidazol-2-yl)-5-(1H-pyrazol-4-yl)-1H-pyrazolo[4,3-b]pyridine]	> 10	36	–	2.98
Fc1cccc(-c2cccc3[nH]c(-c4n[nH]c5ccc(-c6cnccn6)nc45)nc23)c1 [Compound 520, 3-(4-(3-Fluorophenyl)-1H-benzo[d]imidazol-2-yl)-5-(pyrazin-2-yl)-1H-pyrazolo[4,3-b]pyridine]	> 10	26	–	4.29

Now from value to compound, other results behind:

EC50 [1] [µM]	SMILES	inhibition at 10 µM [1] [%]	inhibition at 10 µM [2] [%]	EC50 [2] [µM]
> 10	O=C(Nc1cncc(-c2ccc3[nH]nc(-c4nc5c(-c6ccncc6)cccc5[nH]4)c3n2)c1)C1CCCCC1 [Compound 135, N-(5-(3-(4-(pyridin-4-yl)-1H-benzo[d]imidazol-2-yl)-1H-pyrazolo[4,3-b]pyridin-5-yl)pyridin-3-yl)cyclohexanecarboxamide]	5.4	0	> 10
> 10	CCNCc1cncc(-c2ccc3[nH]nc(-c4nc5c(-c6ccccn6)cccc5[nH]4)c3n2)c1 [Compound 146, N-((5-(3-(4-(Pyridin-2-yl)-1H-benzo[d]imidazol-2-yl)-1H-pyrazolo[4,3-b]pyridin-5-yl)pyridin-3-yl)methyl)ethanamine]	41.6	–	3.68
> 10	O=C(Nc1cncc(-c2ccc3[nH]nc(-c4nc5c(-c6ccccn6)cccc5[nH]4)c3n2)c1)c1ccccc1 [Compound 151, N-(5-(3-(4-(Pyridin-2-yl)-1H-benzo[d]imidazol-2-yl)-1H-pyrazolo[4,3-b]pyridin-5-yl)pyridin-3-yl)benzamide]	34.2	–	5.11
> 10	CCCCC(=O)Nc1cncc(-c2ccc3[nH]nc(-c4nc5c(-c6ccccn6)cccc5[nH]4)c3n2)c1 [Compound 159, N-(5-(3-(4-(Pyridin-2-yl)-1H-benzo[d]imidazol-2-yl)-1H-pyrazolo[4,3-b]pyridin-5-yl)pyridin-3-yl)pentanamide]	11.3	–	0.948
3.79	CCC(=O)Nc1cncc(-c2ccc3[nH]nc(-c4nc5c(N6CCCCC6)cccc5[nH]4)c3n2)c1 [Compound 169, N-(5-(3-(4-(Piperidin-1-yl)-1H-benzo[d]imidazol-2-yl)-1H-pyrazolo[4,3-b]pyridin-5-yl)pyridin-3-yl)propionamide]	–	–	0.158
2.13	CN(C)c1cncc(-c2ccc3[nH]nc(-c4nc5c(N6CCCCC6)cccc5[nH]4)c3n2)c1 [Compound 175, N,N-dimethyl-5-(3-(4-(piperidin-1-yl)-1H-benzo[d]imidazol-2-yl)-1H-pyrazolo[4,3-b]pyridin-5-yl)pyridin-3-amine]	–	–	4.69
1.89	CN(C)Cc1cncc(-c2ccc3[nH]nc(-c4nc5c(N6CCCCC6)cccc5[nH]4)c3n2)c1 [Compound 181, N,N-dimethyl-1-(5-(3-(4-(piperidin-1-yl)-1H-benzo[d]imidazol-2-yl)-1H-pyrazolo[4,3-b]pyridin-5-yl)pyridin-3-yl)methanamine]	–	–	0.785
> 10	CN1CCN(c2cccc3[nH]c(-c4n[nH]c5ccc(-c6cncc(N)c6)nc45)nc23)CC1 [Compound 227, 5-(3-(4-(4-Methylpiperazin-1-yl)-1H-benzo[d]imidazol-2-yl)-1H-pyrazolo [4,3-b]pyridin-5-yl)pyridin-3-amine]	48.8	32.1	> 10
